# From patent US10414721B1, “Inhibitor of endocannabinoid cellular reuptake” (University of Bern, priority 2018, dated 2019)
# Entries after “also recorded” stand apart in the source; their conditions may differ. Where two headings read alike, the source gives them in different places.
# How the values were obtained:
# [1] = tested on: AEA uptake in HMC-1 human mast cells; test: AEA uptake inhibition in FAAH-deficient HMC-1 cells; assay type: cell-based
# Description: All radioactivity-based AEA and 2-AG uptake and release assays performed in U937, and HMC-1 cells were carried out using two different assay formats as previously reported. AEA and 2-AG uptake assay in Neuro2a and primary mouse cortical neurons were performed with a different method disclosed in Chicca 2017.
# COX-2 = COX-2 (Homo sapiens, UniProt P35354); test: COX-2 activity assay; assay type: biochemical
# Description: FAAH, ABHDs, MAGL and COX-2 activity assays were performed using cell homogenates, human recombinant enzymes and mouse, rat and pig brain homogenates as previously described.
# BALB/c mice = test: Tetrad test after i.p. administration; assay type: in vivo, mouse
# Description: WOBE437 was initially assessed in a battery of four individual tests typically associated with CB1 receptor activation in mice (nociception, locomotion, body temperature and cataleptic behavior), collectively referred to as the “tetrad”. Dose-response experiments identified 10 mg/kg as the lowest dose to elicit a moderate but complete tetrad in BALB/c mice upon intraperitoneal (i.p.) administration (FIGS. 3A-D). […] To assess whether the WOBE437-induced effects were CB1 receptor-mediated, mice were pre-treated with the selective antagonist/inverse agonist rimonabant (SR1). […] These experiments provided a proof-of-concept for the mechanism of action of WOBE437 as a novel “indirect CB1 receptor agonist”. In subsequent studies, the effects of WOBE437 in pain, inflammatory and anxiety models were investigated. […] Both effects were reversed by SR1.
# WOBE437 and RX-055 were tested in independent laboratories, in different mouse strains and in multiple (behavioral) models for cannabimimetic, analgesic, anti-inflammatory and anxiolytic-effects in wild-type and phenotypical CB1-KO mice as described in Chicca 2017.
# C57BL6/J mice = test: LC-MS/MS quantification of endocannabinoids, lipids and corticosterone after i.p. injection; assay type: in vivo, mouse
# Description: In order to investigate whether there was a link between the in vivo pharmacological effects of WOBE437 and the inhibition of EC uptake in vitro, the levels of WOBE437, AEA, 2-AG and related lipids in different tissues were quantified by LC-MS/MS. […] The Cbrain/Cplasma ratio (Kp) of WOBE437 was 0.65 after 5 min, 1.64 after 15 min and reached 1.9 after 30 and 60 min (FIGS. 4A and 4E). The peak concentration of WOBE437 in the brain was 780±267 nM, thus being in line with the bioactive concentrations determined in cellular assays. […] Only at 15 min post-injection, WOBE437 prevented the moderate increase of 2-AG induced by DMSO (FIG. 4C). […] On the contrary, 2-AG levels increased 1.7-fold compared to vehicle at 1 h post-injection (FIG. 4G). […] Repeated administrations of WOBE437 led to a significant 3-fold increase of corticosterone in the brain, which mirrors the changes observed in plasma (FIG. 4H). In peripheral organs, WOBE437 reached peak concentrations of 5-20 nmol/g tissue, without any signs of accumulation over 7 days. […] However, EC concentrations were not affected by repeated administrations of WOBE437 in peripheral tissues. Again, corticosterone levels were increased in spleen, liver and kidney.
# (§1) WOBE437, AEA, 2-AG, other lipids and hormones were quantified by LC-MS/MS in different biological matrices (cells, human whole blood, rodent tissues) as reported in Chicca 2017.
# [2] = Oral bioavailability and tissue distribution; assay type: in vivo, mouse; conditions: for Cmax: read-out: apparent Cmax in plasma; for concentration at 20 min: oral, read-out: plasma level
# Description: Male C57BL6/J or male BALB/c mice were orally administered by gavage with 10, 25, 50 or 100 mg/kg of WOBE437 (100 μL; olive oil and ethanol 8:2) using a metal feeding needle (20G, Kent Scientific, USA). The mice were sacrificed by decapitation after gavage administration. Brain, blood, liver, kidney and spleen were collected for the LC-MS/MS analyses. All tissues were briefly washed with ice cold PBS and immediately snap-frozen and stored at −80° C. Whole brain samples were dissected between the hemispheres. Blood samples were immediately centrifuged to obtain plasma, which was stored at −80° C.
# Samples extractions and LC-MS/MS measurements were performed as previously described (Chicca et al., 2017). Briefly, tissues were weighted and transferred in to extraction tubes containing three steel beads and 0.1 M formic acid. Tissues were homogenized and rapidly transferred to glass tubes containing 1.5 mL of ethyl acetate:hexane (9:1) 0.1% formic acid and internal standards (ISs). Samples were centrifuged and the organic phase was recovered. After evaporation, the extracts were reconstituted in 200 μL of ACN:ddH2O (8:2). 10 μL of the solution were injected in the LC-MS/MS system using the same LC and ionization protocols as described (Chicca et al., 2017).
# [3] = Microsomal clearance, mouse liver microsomes; assay type: in vitro ADME
# Description: Human or mice microsome clearance experiment were carried out as according to a previously describe protocol. Briefly, microsome preparation (0.5 mg/mL) plus cofactor NADPH solution was incubated with 1 μM of WOBE437 in 96-well plates at 37° C. After 1, 3, 6, 9, 15, 25, 35 and 45 min, 40 μL of the preparation was transferred and quenched with 3:1 (v/v) acetonitrile containing internal standards. Samples were then cooled and centrifuged before analysis by LC-MS/MS. Log peak area ratios (test compound peak area/internal standard peak area) are plotted against incubation time using a linear fit. The calculated slope is used to determine the intrinsic clearance. Data are obtained from single experiments measured with multiple time-points.
# [4] = tested on: cell lines and human whole blood; test: NAE levels in cell lines and human whole blood; assay type: cell-based
# Source text: as §1
# [5] = 7 days of daily treatment, 10 mg/kg i.p.
# Chain of COX-2 (P35354 18-604): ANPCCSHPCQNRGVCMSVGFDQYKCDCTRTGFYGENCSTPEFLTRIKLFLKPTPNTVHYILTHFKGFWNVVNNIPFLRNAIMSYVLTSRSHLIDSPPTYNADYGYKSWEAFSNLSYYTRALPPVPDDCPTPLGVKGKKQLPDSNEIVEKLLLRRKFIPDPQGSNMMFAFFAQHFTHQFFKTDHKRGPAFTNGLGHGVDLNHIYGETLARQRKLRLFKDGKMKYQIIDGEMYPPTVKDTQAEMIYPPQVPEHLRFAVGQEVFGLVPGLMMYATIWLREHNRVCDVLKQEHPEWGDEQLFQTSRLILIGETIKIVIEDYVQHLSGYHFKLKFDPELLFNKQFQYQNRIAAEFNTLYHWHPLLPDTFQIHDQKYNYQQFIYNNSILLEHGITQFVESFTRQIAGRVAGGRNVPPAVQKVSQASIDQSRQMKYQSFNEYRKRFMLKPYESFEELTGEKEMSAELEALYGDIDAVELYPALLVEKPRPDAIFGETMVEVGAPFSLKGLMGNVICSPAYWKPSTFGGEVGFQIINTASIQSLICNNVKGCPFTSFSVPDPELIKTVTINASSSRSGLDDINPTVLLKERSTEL
smiles,measurement,setting,value
"CCCCCCC/C=C/C=C/C(=O)NCCc1ccc(OC)c(OC)c1 [WOBE437, (2E,4E)-N-[2-(3,4-Dimethoxyphenyl)ethyl]dodeca-2,4-dienamide]",IC50,"[1]; HMC1, FAAH-deficient HMC-1 human mast cells, estimated",~0.137 µM
same,"Hill slope, AEA uptake",[1]; HMC-1 cells,−0.934
same,inhibition of COX-2 activity,COX-2,did not inhibit
same,tetrad response,BALB/c mice; 3 mg/kg,ineffective
same,tetrad response,BALB/c mice; 10 mg/kg,full tetrad response
same,tetrad in CB1 receptor-deficient littermates,BALB/c mice; C57BL6/N background,completely absent
same,tetrad effects after pre-treatment with rimonabant (SR1),"BALB/c mice; hypothermia, catalepsy and antinociception",completely blocked by SR1
same,"hypothermia, catalepsy and antinociception compared to (R)-WIN55,212-2",BALB/c mice; i.p.,significantly less pronounced
same,lowest dose to elicit a complete tetrad,"BALB/c mice; i.p., BALB/c mice",10 mg/kg
same,brain 2-AG level increase compared to vehicle (DMSO),C57BL6/J mice; [5],1.5 fold
same,brain AEA level increase compared to vehicle (DMSO),C57BL6/J mice; [5],1.5 fold
same,circulating concentration of corticosterone,C57BL6/J mice; after 7 days,doubled
same,"concentrations of other lipids (NAEs, AA, prostaglandins and progesterone)","C57BL6/J mice; brain, plasma and peripheral organs",not significantly altered
same,"increase of corticosterone levels in brain, plasma and peripheral organs",C57BL6/J mice; repeated administration,2-4 fold
same,increase of corticosterone in the brain,C57BL6/J mice; repeated administrations,3 fold
same,EC concentrations in peripheral tissues,"C57BL6/J mice; repeated administrations, 10 mg/kg",not affected; also recorded: did not significantly alter
same,AEA and 2-AG levels in plasma,C57BL6/J mice; single and repeated injection(s),not significantly affected
same,2-AG levels in peripheral organs,C57BL6/J mice; single injection,"not altered in the spleen, but dropped significantly after 60-360 min in liver and kidney"
same,AEA level in peripheral organs,C57BL6/J mice; single injection,"did not change in liver, whereas in kidney and spleen it moderately diminished"
same,brain AEA levels compared to basal level,C57BL6/J mice; single injection,did not change
same,brain 2-AG level increase compared to vehicle,"C57BL6/J mice; single injection 10 mg/kg i.p., 1 h post-injection",1.7 fold
same,brain level,"[2]; 10 mg/kg p.o., 20 min, C57BL6/J",24.7 ± 25.3 pmol/g
same,apparent volume of distribution (Vd) at Cmax,[2]; 50 mg/kg p.o.,80.4 L/kg
same,apparent volume of distribution (Vd) at the steady state,[2]; 50 mg/kg p.o.,609 L/kg
same,brain concentration 3 h after administration,[2]; 50 mg/kg p.o.,18 pmol/g
same,drop of hepatic concentration between 20 and 40 min,[2]; 50 mg/kg p.o.,4 factor
same,estimated concentration in brain,[2]; 50 mg/kg p.o.,399.7 ± 154.7 nM
same,time until cleared from the brain,[2]; 50 mg/kg p.o.,approximately 180 min
same,brain levels after p.o. as compared to i.p. (times lower),[2]; 50 mg/kg p.o. vs 10 mg/kg i.p.,approximately 10 times
same,highest concentration in kidney,"[2]; 50 mg/kg p.o., 20 min",2277 ± 916 pmol/g
same,highest concentration in liver,"[2]; 50 mg/kg p.o., 20 min",4720 ± 3273 pmol/g
same,highest concentration in spleen,"[2]; 50 mg/kg p.o., 20 min",1030 ± 339 pmol/g
same,brain level,"[2]; 50 mg/kg p.o., 20 min, C57BL6/J",534.5 ± 109.9 pmol/g
same,hepatic concentration,"[2]; 50 mg/kg p.o., 40 min",1080 pmol/g
same,Cmax,[2]; 50 mg/kg p.o.,~2000 nM
same,Tmax,"[2]; male, C57BL6/J, mouse, brain, plasma, po, 50 mg/kg, 50 mg/kg p.o., read-out: tmax in brain and plasma",≤ 20 min
same,Tmax,"[2]; male, C57BL6/J, mouse, kidney, liver, spleen, po, 50 mg/kg, 50 mg/kg p.o., read-out: tmax in kidney, liver and spleen (converted)",20 min
same,Cmax,"[2]; male, C57BL6/J, mouse, plasma, po, 50 mg/kg, 50 mg/kg p.o.",1930 ± 564 nM
same,concentration at 20 min,"[2]; male, mouse, plasma, 10 mg/kg p.o., 20 min, C57BL6/J",47.3 ± 32.5 nM
same,concentration at 20 min,"[2]; male, mouse, plasma, 50 mg/kg p.o., 20 min, C57BL6/J",1730 ± 703 nM
same,clearance,"[3]; 1 μM, preliminary",0.174 mL/min/kg
same,bioavailability at 1 μM,"[3]; mouse, mice, from microsomal clearance, read-out: estimated maximal bioavailability",17%
same,levels of other NAEs,[4],without altering the levels of other NAEs
